Measured values reported in BindingDB's records for patent WO2025049746 (Eikon Therapeutics, 2025).

Legend:
[1] = target: T1, Bifunctional 3'-5' exonuclease/ATP-dependent helicase WRN [480-1251] (UniProt Q14191); test: Biochemical Activity Assays
T1 construct: 480-1251

[2] = target: Bifunctional 3'-5' exonuclease/ATP-dependent helicase WRN (Homo sapiens, UniProt Q14191); test: ADP-Glo Kinase Assay
Protocol: ATPase activity was measured using the ADP-Glo Kinase Assay following the manufacturers recommended protocol.

T1 sequence (Q14191 480-1251): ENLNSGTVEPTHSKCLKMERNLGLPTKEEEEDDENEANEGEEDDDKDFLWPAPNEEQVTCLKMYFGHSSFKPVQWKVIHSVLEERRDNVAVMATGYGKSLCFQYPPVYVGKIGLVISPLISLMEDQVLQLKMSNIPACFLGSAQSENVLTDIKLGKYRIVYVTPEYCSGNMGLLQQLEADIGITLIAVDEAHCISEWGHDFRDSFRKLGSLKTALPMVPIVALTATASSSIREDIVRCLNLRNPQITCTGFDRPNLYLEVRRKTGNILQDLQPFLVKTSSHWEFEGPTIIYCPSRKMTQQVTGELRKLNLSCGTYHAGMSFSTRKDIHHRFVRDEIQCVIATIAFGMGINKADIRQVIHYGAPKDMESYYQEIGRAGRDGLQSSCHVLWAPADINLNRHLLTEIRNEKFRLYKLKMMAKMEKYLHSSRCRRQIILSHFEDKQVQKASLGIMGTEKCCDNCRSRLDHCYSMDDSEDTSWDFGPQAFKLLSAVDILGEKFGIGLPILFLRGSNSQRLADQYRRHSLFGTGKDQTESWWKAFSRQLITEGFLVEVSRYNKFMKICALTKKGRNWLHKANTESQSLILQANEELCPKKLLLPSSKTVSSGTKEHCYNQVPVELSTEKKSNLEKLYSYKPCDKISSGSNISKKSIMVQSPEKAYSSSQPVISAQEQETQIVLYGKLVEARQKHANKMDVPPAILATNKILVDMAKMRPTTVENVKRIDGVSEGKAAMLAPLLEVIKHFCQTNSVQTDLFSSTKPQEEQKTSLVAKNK
Chain of Bifunctional 3'-5' exonuclease/ATP-dependent helicase WRN (Q14191 whole entry): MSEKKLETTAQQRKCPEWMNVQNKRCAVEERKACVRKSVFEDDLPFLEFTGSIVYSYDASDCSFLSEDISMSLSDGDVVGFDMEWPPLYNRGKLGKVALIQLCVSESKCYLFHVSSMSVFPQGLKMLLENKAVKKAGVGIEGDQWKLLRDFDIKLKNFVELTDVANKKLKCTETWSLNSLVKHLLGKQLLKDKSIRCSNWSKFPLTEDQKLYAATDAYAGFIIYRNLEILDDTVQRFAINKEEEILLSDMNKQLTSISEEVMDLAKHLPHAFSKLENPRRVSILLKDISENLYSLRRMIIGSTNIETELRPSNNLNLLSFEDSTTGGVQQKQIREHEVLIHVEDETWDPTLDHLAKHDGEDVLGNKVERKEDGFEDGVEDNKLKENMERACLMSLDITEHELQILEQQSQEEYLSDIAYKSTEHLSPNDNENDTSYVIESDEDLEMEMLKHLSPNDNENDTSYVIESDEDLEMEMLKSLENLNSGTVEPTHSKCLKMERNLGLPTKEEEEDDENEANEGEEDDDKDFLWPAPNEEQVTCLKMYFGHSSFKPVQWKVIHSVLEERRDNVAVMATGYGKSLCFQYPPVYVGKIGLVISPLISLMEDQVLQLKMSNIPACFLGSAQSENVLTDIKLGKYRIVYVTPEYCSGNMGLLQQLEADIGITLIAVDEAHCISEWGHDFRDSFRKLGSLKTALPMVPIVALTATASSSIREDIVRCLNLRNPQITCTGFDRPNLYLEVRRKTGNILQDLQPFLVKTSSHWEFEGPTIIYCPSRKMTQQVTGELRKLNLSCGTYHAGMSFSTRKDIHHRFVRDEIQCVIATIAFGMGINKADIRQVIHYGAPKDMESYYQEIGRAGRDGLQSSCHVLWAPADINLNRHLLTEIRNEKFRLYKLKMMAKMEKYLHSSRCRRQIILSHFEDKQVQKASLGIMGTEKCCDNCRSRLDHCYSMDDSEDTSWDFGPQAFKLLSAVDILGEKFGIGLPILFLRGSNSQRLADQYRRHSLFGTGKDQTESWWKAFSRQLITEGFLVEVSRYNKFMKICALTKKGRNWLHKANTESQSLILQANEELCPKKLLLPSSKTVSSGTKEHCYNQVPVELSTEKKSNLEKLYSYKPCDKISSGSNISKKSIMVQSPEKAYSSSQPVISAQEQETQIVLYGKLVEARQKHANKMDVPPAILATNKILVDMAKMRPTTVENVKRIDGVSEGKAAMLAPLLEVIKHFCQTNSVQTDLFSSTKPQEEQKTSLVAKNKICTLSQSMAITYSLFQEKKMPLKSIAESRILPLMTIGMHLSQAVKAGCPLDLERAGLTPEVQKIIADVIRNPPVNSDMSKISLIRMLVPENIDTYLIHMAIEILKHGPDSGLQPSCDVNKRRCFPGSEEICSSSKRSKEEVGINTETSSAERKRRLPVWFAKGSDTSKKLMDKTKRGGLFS

Row | SMILES | IC50 [1] [µM] | IC50 [2] [µM]
1 | CCc1c(N2CCN(C(=O)C3=CCOCC3)CC2)c(=O)n2nc(-c3ccnc(O)n3)nc2n1CC(=O)Nc1ccc(C(F)(F)F)cc1Cl [WO2025049746, Example 430] | 0.373 | 0.55
2 | CCc1c(N2CCN(C(=O)c3cc(C)c(O)cc3O)CC2)c(=O)n2nc(-c3ccc4c(c3)COC4)nc2n1CC(=O)Nc1ccc(C(F)(F)F)cc1Cl [WO2025049746, Example 413] | 0.303 | 0.386
3 | CCc1c(N2CCN(C(=O)c3ncnc(C)c3O)CC2)c(=O)n2nc(-c3cccc4c3OCCO4)nc2n1CC(=O)Nc1ccc(SC(F)(F)F)cc1Cl [WO2025049746, Example 399] | 0.115 | 0.142
4 | Cc1ncnc(C(=O)N2CCN(c3c(OC(F)F)n(CC(=O)Nc4ccc(C(F)(F)F)cc4Cl)c4nc(-c5ccc6c(c5)COC6)nn4c3=O)CC2)c1O [WO2025049746, Example 375] | 4.9 | 1.14
5 | Cc1ncnc(C(=O)N2CCN(c3c4n(c5nc(-c6ccc7c(c6)COC7(C)C)nn5c3=O)[C@H](C(=O)Nc3ccc(C(F)(F)F)cc3Cl)C[C@H]4C)[C@H]3CC[C@@H]32)c1O [WO2025049746, Example 467] | 9.57 | > 29.7
6 | CCc1c(N2CCN(C(=O)c3nc4n(c(=O)c3O)CCC4)CC2)c(=O)n2nc(-c3ccc4c(c3)COC4)nc2n1CC(=O)Nc1ccc(C(F)(F)F)cc1Cl [WO2025049746, Example 422] | 0.038 | 0.047
7 | CCc1c(N2CCN(C(=O)c3ncnc(C)c3O)CC2)cn2nc(C3=CCOCC3)nc2c1CC(=O)Nc1ccc(C(F)(F)F)cc1Cl [WO2025049746, Example 374] | 29.7 | 29.7
8 | CCc1c(N2CCN(C(=O)c3ncnc(C)c3O)CC2)c(=O)n2nc(-c3cc4c(cc3C)OCC4)nc2n1CC(=O)Nc1ccc(C(F)(F)F)cc1Cl [WO2025049746, Example 174] | 0.031 | 0.059
9 | CCc1c(N2CCN(C(=O)c3ncnc(C)c3O)CC2)c(=O)n2nc(-c3cn4c(n3)COCC4)nc2n1CC(=O)Nc1ccc(C(F)(F)F)cc1Cl [WO2025049746, Example 153] | 0.165 | 0.168
10 | CCc1c(N2CCN(C(=O)c3ncnc(C)c3O)CC2)c(=O)n2nc(-c3ccc4c(c3)COC4)nc2n1CC(=O)Nc1c(Cl)cc(C(F)(F)F)c2c1CC2 [WO2025049746, Example 384] | 0.029 | 0.035
11 | CCc1c(N2CCN(C(=O)c3ncnc(C)c3O)CC2)c(=O)n2nc(C3=CCOCC3)nc2n1CC(=O)NC12CC(C3CC3)(C1)C2 [WO2025049746, Example 359] | 0.148 | 0.232
12 | Cc1ncnc(C(=O)N2CCN(c3c4n(c5nc(-c6ccc7c(c6)COC7(C)C)nn5c3=O)[C@@H](C(=O)Nc3ccc(C(F)(F)F)cc3Cl)C[C@@H]4C)[C@H]3CC[C@@H]32)c1O [WO2025049746, Example 466] | 9.39 | > 29.7
13 | Cc1ncnc(C(=O)N2CCN(c3c4n(c5nc(-c6ccc7c(c6)COC7(C)C)nn5c3=O)[C@H](C(=O)Nc3ccc(C(F)(F)F)cc3Cl)C[C@@H]4C)[C@H]3CC[C@@H]32)c1O [WO2025049746, Example 468] | 0.0424 | 0.0381
14 | CCc1c(N2CCN(C(=O)c3ncnc(C)c3O)CC2)c(=O)n2nc(C3=CCOCC3)nc2n1CC(=O)Nc1ccc(OC(F)F)cc1Cl [WO2025049746, Example 370] | 0.161 | 0.163
15 | CCc1c(N2CCN(C(=O)c3ncnc(C)c3O)CC2)c(=O)n2nc(-c3cccc4c3COC(C)(C)C4)nc2n1CC(=O)Nc1ccc(C(F)(F)F)cc1Cl [WO2025049746, Example 223] | 1.55 | 3.83
16 | Cc1ncnc(C(=O)N2CCN(c3c4n(c5nc(-c6ccc7c(c6)COC7(C)C)nn5c3=O)[C@H](C(=O)Nc3ccc(C(F)(F)F)cc3Cl)C[C@@H]4C)CC2)c1O [WO2025049746, Example 471] | 1.81 | 1.79

Row | SMILES | IC50 [1] [µM] | IC50 [2] [µM]
17 | CCc1c(N2CCN(C(=O)c3nc4n(c(=O)c3O)CCCC4)CC2)c(=O)n2nc(-c3ccc4c(c3)COC4)nc2n1CC(=O)Nc1ccc(C(F)(F)F)cc1Cl [WO2025049746, Example 427] | 0.019 | 0.019
18 | CCc1c(N2CCN(C(=O)c3ncnc(C)c3O)CC2)c(=O)n2nc(-c3cccc4c3OCO4)nc2n1CC(=O)Nc1ccc(SC(F)(F)F)cc1 [WO2025049746, Example 394] | 0.593 | 0.76
19 | CCc1c(N2CCN(C(=O)c3ncnc(C)c3O)CC2)c(=O)n2nc(-c3ccn4ncc(F)c4c3)nc2n1CC(=O)Nc1ccc(C(F)(F)F)cc1Cl [WO2025049746, Example 326] | 0.026 | 0.024
20 | CCc1c(N2CCN(C(=O)CO)CC2)c(=O)n2nc(C3=CCOCC3)nc2n1CC(=O)Nc1ccc(C(F)(F)F)cc1Cl [WO2025049746, Example 53] | 0.254 | 0.44
21 | CCc1c(N2CCN(C(=O)c3ncnc(C)c3O)CC2)c(=O)n2nc(-c3ccc4c(c3F)CCOC4)nc2n1CC(=O)Nc1ccc(C(F)(F)F)cc1Cl [WO2025049746, Example 217] | 0.032 | 0.031
22 | CCc1c(N2CCN(C(=O)c3ncnc(C)c3O)CC2)c(=O)n2nc(N3CCC4(COC4)C3)nc2n1CC(=O)Nc1ccc(C(F)(F)F)cc1Cl [WO2025049746, Example 29] | 0.0632 | 0.0739
23 | CCc1c(N2CCN(C(=O)c3nsc(-c4ccncc4)c3O)CC2)c(=O)n2nc(-c3ccc4c(c3)COC4)nc2n1CC(=O)Nc1ccc(C(F)(F)F)cc1Cl [WO2025049746, Example 448] | 0.042 | 0.049
24 | CCc1c(N2CCN(C(=O)c3ncnc(C)c3O)CC2)c(=O)n2nc(N(C)C)nc2n1CC(=O)Nc1ccc(C(F)(F)F)cc1Cl [WO2025049746, Example 30] | 0.0372 | 0.053
25 | CCc1c(N2CCN(C(=O)c3ncnc(C)c3O)CC2)c(=O)n2nc(-c3ccc(NC(=O)NC)cc3)nc2n1CC(=O)Nc1ccc(C(F)(F)F)cc1Cl [WO2025049746, Example 331] | 0.026 | 0.02
26 | CCc1c(N2CCN(C(=O)c3ncnc(C)c3O)CC2)c(=O)n2nc(-c3ccc4occc4c3)nc2n1CC(=O)Nc1ccc(C(F)(F)F)cc1Cl [WO2025049746, Example 283] | 0.037 | 0.033
27 | CCc1c(N2CCN(C(=O)c3ncnc(C)c3O)CC2)c(=O)n2nc(-c3cc(C)c4ncccc4c3)nc2n1CC(=O)Nc1ccc(C(F)(F)F)cc1Cl [WO2025049746, Example 336] | 0.06 | 0.053
28 | CCc1c(N2CCN(C(=O)c3ncnc(C)c3O)CC2)c(=O)n2nc(-c3ccc4c(c3C)COC4(C)C)nc2n1CC(=O)Nc1ccc(C(F)(F)F)cc1Cl [WO2025049746, Example 214] | 0.038 | 0.045
29 | CCc1c(N2CCN(C(=O)c3nc4c(cc3O)OCCC4)CC2)c(=O)n2nc(-c3ccc4c(c3)COC4)nc2n1CC(=O)Nc1ccc(C(F)(F)F)cc1Cl [WO2025049746, Example 432] | 0.075 | 0.088
30 | CCc1c(N2CCN(C(=O)c3ncnc(C)c3O)CC2)c(=O)n2nc(-c3ccc4nscc4c3)nc2n1CC(=O)Nc1ccc(C(F)(F)F)cc1Cl [WO2025049746, Example 266] | 0.022 | 0.022
31 | CCc1c(N2CCN(C(=O)c3nccc4nc[nH]c34)CC2)c(=O)n2nc(N3C[C@H]4COC[C@H]4C3)nc2n1CC(=O)Nc1ccc(C(F)(F)F)cc1Cl [WO2025049746, Example 95] | 0.0163 | 0.0201
